Test results taken from US5698391A, “Methods for synthetic unrandomization of oligomer fragments” (ISIS Pharmaceuticals, Inc., priority 1994, dated 1997).

system: HIV gag-pol stem loop; assay: Gel shift, oligonucleotide set binding to HIV gag-pol triple strand; conditions: pH 5, 100 mM NaCl, 2 mM MgCl2, 1 mM spermidine
Source text: Binding to double stranded DNA or RNA is possible by formation of a three stranded complex, with the incoming third strand binding in the major groove of the duplex RNA or DNA. FIG. 6 illustrates a double stranded RNA structure from HIV known as the gag-pol stem loop (Vickers and Ecker, Nucleic Acids Research). One of the limitations in the design of triple strand interactions is the need to have a long stretch of homopurines as a target. The 3' (right) side of the gag-pol stem loop is homopurine except for a pair of cytosines near the bottom of the stem. To determine the best oligonucleotide to bind to the gag-pol stem loop, a group of RNA oligonucleotide sets was designed to bind to the purine-rich strand of the gag-pol stem-loop by Hoogstein base pairing and prepared in accordance with Examples 2 and 6. Binding to the gag-pol stemloop was measured by gel shift analysis as previously described in Example 8 with the following modifications: the radiolabeled gag-pol RNA was incubated with the oligonucleotide in 100 mM NaCl, 25 mM TRIS acetate (pH 5), 2 mM MgCl2, 1 mM spermidine. The gel was 15% acrylamide with 50 mM NaCl and 2 mM MgCl2 added to the running buffer.

Row | Substance | Kd [µM]
1 | D2: RNA oligonucleotide, SEQ ID NO: 13 (CCCUUCCCUUC; RNA, backbone not given here) [Set D2] | 10
2 | B2: RNA oligonucleotide, SEQ ID NO: 11 (CCCUUCCCGUC; RNA, backbone not given here) [Set B2] | 10
3 | C2: RNA oligonucleotide, SEQ ID NO: 12 (CCCUUCCCCUC; RNA, backbone not given here) [Set C2] | 1
4 | A2: RNA oligonucleotide, SEQ ID NO: 10 (CCCUUCCCAUC; RNA, backbone not given here) [Set A2] | 10
